The record followed here is ChEMBL document CHEMBL1141104, “Glycodiversification for the optimization of the kanamycin class aminoglycosides” (2005).

Experiment [1] deals with Escherichia coli. As to the kind of experiment: Minimum inhibitory concentration against Escherichia coli (ATCC 25922). It is filed as functional.
For experiment [2], the system named is Staphylococcus aureus. As to the kind of experiment: Minimum inhibitory concentration against Staphylococcus aureus (ATCC 25923). It is filed as functional.
Experiment [3] relates to Staphylococcus aureus. As to the kind of experiment: Minimum inhibitory concentration against Staphylococcus aureus (ATCC 25923); inactive. It is filed as functional, organism-based.
Experiment [4] relates to Escherichia coli. As to the kind of experiment: Minimum inhibitory concentration against Escherichia coli (ATCC 25922); inactive. It is filed as functional, organism-based.
[5] abbreviates: Escherichia coli, ATCC 25922, read-out: MIC.
The mark [6] stands for this setting: Staphylococcus aureus, ATCC 25923, read-out: MIC.

≈ marks a conversion by molar mass, not a printed value. Calls of active or inactive are those of the source. The calls are words filed in the database; no cut-off is given here.

`CC1OC(OC2C(N)CC(N)C(OC3OC(CN)C(O)C(O)C3N)C2O)C(O)C(O)C1OC[C@H](N)CN` (some centres undefined): the minimal inhibitory concentration (MIC) with Escherichia coli [1] (setting [5]) and in the experiment on Staphylococcus aureus [2] (setting [6]) was 8 mg/L (≈ 14.8 µM) each time.

With `CC1OC(OC2C(N)CC(N)C(OC3OC(CN)C(O)C(O)C3N)C2O)C(O)C(O)C1O` (stereo in doubt) [listing 1 of 2 here], the MIC result with Staphylococcus aureus [3] and with Escherichia coli [4] was “inactive” throughout.

Turning to `CC1OC(OC2C(N)CC(N)C(OC3OC(CN)C(O)C(O)C3N)C2O)C(O)C(O)C1OC[C@@H](O)CN` (some centres undefined), the MIC in the experiment with Escherichia coli [1] (setting [5]) and with Staphylococcus aureus [2] (setting [6]) was 4 mg/L (≈ 7.39 µM) throughout.

As for `CC1OC(OC2C(N)CC(N)C(OC3OC(CN)C(O)C(O)C3N)C2O)C(O)C(O)C1OC[C@@H](N)CN` (some centres undefined), the MIC in the experiment with Escherichia coli [1] (setting [5]) and with Staphylococcus aureus [2] (setting [6]) was 8 mg/L (≈ 14.8 µM) each time.

`CC1OC(OC2C(N)CC(N)C(OC3OC(CN)C(O)C(O)C3N)C2O)C(O)C(O)C1O` (stereo in doubt; 23): the MIC entry with Staphylococcus aureus [3] and with Escherichia coli [4] was “inactive” in each case.

Turning to `CC1OC(OC2C(N)CC(N)C(OC3OC(CN)C(O)C(O)C3N)C2O)C(O)C(N)C1O` (centres undefined), the MIC in the experiment with Escherichia coli [1] (setting [5]) and with Staphylococcus aureus [2] (setting [6]) was 2 mg/L (≈ 4.28 µM) in each case.

For the molecule `CC1OC(OC2C(N)CC(N)C(OC3OC(CN)C(O)C(O)C3N)C2O)C(O)C(O)C1OCC(CN)OC[C@H](O)CN` (some centres undefined), the MIC in the experiment on Escherichia coli [1] (setting [5]) is 8 mg/L (≈ 13 µM); in the experiment on Staphylococcus aureus [2] (setting [6]), 4 mg/L (≈ 6.51 µM).

Consider `CC1OC(OC2C(N)CC(N)C(OC3OC(CN)C(O)C(O)C3N)C2O)C(O)C(N)C1OCC(O)CN` (centres undefined), for which the MIC in the experiment on Escherichia coli [1] (setting [5]) worked out at 4 mg/L (≈ 7.4 µM); in the experiment with Staphylococcus aureus [2] (setting [6]) it was 2 mg/L (≈ 3.7 µM).

Regarding `CC1OC(OC2C(N)CC(N)C(OC3OC(CN)C(O)C(O)C3N)C2O)C(O)C(O)C1OC[C@H](O)CN` (some centres undefined), the MIC in the experiment with Escherichia coli [1] (setting [5]) and with Staphylococcus aureus [2] (setting [6]) was 4 mg/L (≈ 7.39 µM) throughout.

Regarding `CC1OC(OC2C(N)CC(N)C(OC3OC(CN)C(O)C(O)C3N)C2O)C(O)C(O)C1OCCCN` (centres undefined), the MIC in the experiment with Escherichia coli [1] (setting [5]) and in the experiment on Staphylococcus aureus [2] (setting [6]) was 4 mg/L (≈ 7.61 µM) throughout.

As to `NC[C@H]1O[C@H](O[C@H]2[C@H](O)[C@@H](O[C@H]3O[C@H](CO)[C@@H](O)[C@H](N)[C@H]3O)[C@H](N)C[C@@H]2N)[C@H](N)[C@@H](O)[C@@H]1O` [BEKANAMYCIN], the MIC in the experiment with Escherichia coli [1] was determined as 4 mg/L (≈ 8.27 µM); in the experiment with Escherichia coli [1] (setting [5]), 2 mg/L (≈ 4.14 µM); against Staphylococcus aureus [2], 1 mg/L (≈ 2.07 µM); in the experiment with Staphylococcus aureus [2] (setting [6]) it was 2 mg/L (≈ 4.14 µM).

With `CC1CC(O)C(O)C(OC2C(N)CC(N)C(OC3OC(CN)C(O)C(O)C3N)C2O)O1` (centres undefined), the MIC result in the experiment on Staphylococcus aureus [3] and with Escherichia coli [4] was “inactive” in each case.

Consider `CC1OC(OC2C(N)CC(N)C(OC3OC(CN)C(O)C(O)C3N)C2O)C(O)C(O)C1O` (stereo in doubt) [listing 2 of 2 here], for which the MIC in the experiment on Escherichia coli [1] (setting [5]) turned out to be 32 mg/L (≈ 68.3 µM); in the experiment with Staphylococcus aureus [2] (setting [6]), 16 mg/L (≈ 34.2 µM).

For the molecule `NC[C@@H]1O[C@H](O[C@H]2[C@H](O)[C@H](O[C@H]3O[C@H](CO)[C@H](O)[C@@H](O)[C@H]3O)[C@H](N)C[C@H]2N)[C@@H](N)[C@@H](O)[C@@H]1O`, the MIC with Escherichia coli [1] (setting [5]) and in the experiment with Staphylococcus aureus [2] (setting [6]) was 32 mg/L (≈ 66 µM) throughout.

Turning to `CC1OC(OC2C(N)CC(N)C(OC3OC(CN)C(O)C(O)C3N)C2O)C(O)C(O)C1N` (centres undefined), the MIC with Escherichia coli [1] (setting [5]) came out at 12 mg/L (≈ 25.7 µM); with Staphylococcus aureus [2] (setting [6]), 2 mg/L (≈ 4.28 µM).

As to `NCC1OC(OC2C(N)CC(N)C(OC3OCC(O)C(O)C3O)C2O)C(N)C(O)C1O` (centres undefined), the values for the minimum inhibitory concentration (MIC) in the experiment on Escherichia coli [1] (setting [5]) and with Staphylococcus aureus [2] (setting [6]) were 32 mg/L (≈ 70.4 µM) and 64 mg/L (≈ 141 µM), respectively.

Broadly, the MIC is the lowest concentration found to suppress growth.
